According to article PMC11167047 (Cell Death Discovery, 2024):

Experiments:
Experiment in all cases: kinome screen (33PanQinase)
Type in all cases: biochemical
PAK7 = target: T1, PAK7 (Homo sapiens, UniProt Q9P286)
T1 construct: purchased Reaction Biology Europe GmbH (formerly ProQinase)
Protocol: (§1) The Kinome Screening was performed by Reaction Biology Europe GmbH (http://reactionbiology.com; Freiburg i. Br., Germany).

EPHA4 = target: T2, EPHA4 (Homo sapiens, UniProt P54764)
T2 construct: purchased Reaction Biology Europe GmbH (formerly ProQinase)
Protocol: as §1

FGFR1 = target: T3, FGFR1 (Homo sapiens, UniProt P11362)
T3 construct: purchased Reaction Biology Europe GmbH (formerly ProQinase)
Protocol: as §1

IRAK4 = target: T4, IRAK4 (Homo sapiens, UniProt Q9NWZ3)
T4 construct: purchased Reaction Biology Europe GmbH (formerly ProQinase)
T4 sequence (Q9NWZ3 1-460): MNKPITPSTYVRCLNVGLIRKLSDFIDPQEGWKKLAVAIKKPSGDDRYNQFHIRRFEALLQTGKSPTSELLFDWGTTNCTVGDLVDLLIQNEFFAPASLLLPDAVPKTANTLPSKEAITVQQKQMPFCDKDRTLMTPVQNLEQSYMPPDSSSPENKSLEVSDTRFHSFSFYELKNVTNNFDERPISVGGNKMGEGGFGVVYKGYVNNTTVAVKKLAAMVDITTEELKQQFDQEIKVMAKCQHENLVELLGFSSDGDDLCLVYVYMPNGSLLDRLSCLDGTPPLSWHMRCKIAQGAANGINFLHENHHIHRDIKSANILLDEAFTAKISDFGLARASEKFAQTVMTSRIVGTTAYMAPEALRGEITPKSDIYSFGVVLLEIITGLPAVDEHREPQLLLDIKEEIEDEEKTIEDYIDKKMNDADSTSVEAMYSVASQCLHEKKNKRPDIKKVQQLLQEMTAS
Protocol: as §1

ACVR2B = target: T5, ACVR2B (Homo sapiens, UniProt Q13705)
T5 construct: purchased Reaction Biology Europe GmbH (formerly ProQinase)
Protocol: as §1

ACVR1 = target: T6, ACVR1 (Homo sapiens, UniProt Q04771)
T6 construct: purchased Reaction Biology Europe GmbH (formerly ProQinase)
T6 sequence (Q04771 21-509): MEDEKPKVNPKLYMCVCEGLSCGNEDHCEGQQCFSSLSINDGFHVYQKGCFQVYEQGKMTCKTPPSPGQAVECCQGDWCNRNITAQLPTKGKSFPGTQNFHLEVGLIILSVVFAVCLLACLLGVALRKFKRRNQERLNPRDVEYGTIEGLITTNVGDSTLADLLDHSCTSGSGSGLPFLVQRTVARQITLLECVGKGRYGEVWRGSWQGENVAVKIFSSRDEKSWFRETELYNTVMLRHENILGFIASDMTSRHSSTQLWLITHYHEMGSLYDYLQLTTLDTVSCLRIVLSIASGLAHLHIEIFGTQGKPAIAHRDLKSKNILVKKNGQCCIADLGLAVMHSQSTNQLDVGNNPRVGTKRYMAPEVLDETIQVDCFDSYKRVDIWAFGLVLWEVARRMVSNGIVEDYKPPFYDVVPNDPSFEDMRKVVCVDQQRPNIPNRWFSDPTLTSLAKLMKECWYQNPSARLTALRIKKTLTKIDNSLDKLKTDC
Protocol: as §1

HIPK4 = target: T7, HIPK4 (Homo sapiens, UniProt Q8NE63)
T7 construct: purchased Reaction Biology Europe GmbH (formerly ProQinase)
T7 sequence (Q8NE63 1-616): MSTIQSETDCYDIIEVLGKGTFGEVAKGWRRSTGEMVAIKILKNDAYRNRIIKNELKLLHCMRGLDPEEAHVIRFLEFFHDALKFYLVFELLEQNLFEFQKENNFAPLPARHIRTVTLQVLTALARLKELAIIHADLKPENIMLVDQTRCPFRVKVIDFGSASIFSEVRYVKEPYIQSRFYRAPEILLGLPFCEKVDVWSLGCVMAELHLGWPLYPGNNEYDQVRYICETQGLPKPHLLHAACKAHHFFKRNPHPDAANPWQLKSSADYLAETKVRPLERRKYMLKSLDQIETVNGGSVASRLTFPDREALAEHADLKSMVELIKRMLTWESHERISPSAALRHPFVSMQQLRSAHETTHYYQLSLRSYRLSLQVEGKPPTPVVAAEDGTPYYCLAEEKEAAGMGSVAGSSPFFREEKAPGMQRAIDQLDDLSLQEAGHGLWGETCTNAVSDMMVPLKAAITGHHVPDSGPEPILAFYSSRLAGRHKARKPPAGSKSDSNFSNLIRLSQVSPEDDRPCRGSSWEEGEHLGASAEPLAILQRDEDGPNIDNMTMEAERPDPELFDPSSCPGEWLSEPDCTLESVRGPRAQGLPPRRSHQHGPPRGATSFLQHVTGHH
Protocol: as §1

ACK1 = target: T8, ACK1 (Homo sapiens, UniProt Q07912)
T8 construct: purchased Reaction Biology Europe GmbH (formerly ProQinase)
Protocol: as §1

MELK = target: T9, MELK (Homo sapiens, UniProt Q14680)
T9 construct: purchased Reaction Biology Europe GmbH (formerly ProQinase)
Protocol: as §1

FES = target: T10, FES (Homo sapiens, UniProt P07332)
T10 construct: purchased Reaction Biology Europe GmbH (formerly ProQinase)
Protocol: as §1

NEK4 = target: T11, NEK4 (Homo sapiens, UniProt P51957)
T11 construct: purchased Reaction Biology Europe GmbH (formerly ProQinase)
Protocol: as §1

EPHA5 = target: T12, EPHA5 (Homo sapiens, UniProt P54756)
T12 construct: purchased Reaction Biology Europe GmbH (formerly ProQinase)
Protocol: as §1

T10 sequence (P07332 whole entry): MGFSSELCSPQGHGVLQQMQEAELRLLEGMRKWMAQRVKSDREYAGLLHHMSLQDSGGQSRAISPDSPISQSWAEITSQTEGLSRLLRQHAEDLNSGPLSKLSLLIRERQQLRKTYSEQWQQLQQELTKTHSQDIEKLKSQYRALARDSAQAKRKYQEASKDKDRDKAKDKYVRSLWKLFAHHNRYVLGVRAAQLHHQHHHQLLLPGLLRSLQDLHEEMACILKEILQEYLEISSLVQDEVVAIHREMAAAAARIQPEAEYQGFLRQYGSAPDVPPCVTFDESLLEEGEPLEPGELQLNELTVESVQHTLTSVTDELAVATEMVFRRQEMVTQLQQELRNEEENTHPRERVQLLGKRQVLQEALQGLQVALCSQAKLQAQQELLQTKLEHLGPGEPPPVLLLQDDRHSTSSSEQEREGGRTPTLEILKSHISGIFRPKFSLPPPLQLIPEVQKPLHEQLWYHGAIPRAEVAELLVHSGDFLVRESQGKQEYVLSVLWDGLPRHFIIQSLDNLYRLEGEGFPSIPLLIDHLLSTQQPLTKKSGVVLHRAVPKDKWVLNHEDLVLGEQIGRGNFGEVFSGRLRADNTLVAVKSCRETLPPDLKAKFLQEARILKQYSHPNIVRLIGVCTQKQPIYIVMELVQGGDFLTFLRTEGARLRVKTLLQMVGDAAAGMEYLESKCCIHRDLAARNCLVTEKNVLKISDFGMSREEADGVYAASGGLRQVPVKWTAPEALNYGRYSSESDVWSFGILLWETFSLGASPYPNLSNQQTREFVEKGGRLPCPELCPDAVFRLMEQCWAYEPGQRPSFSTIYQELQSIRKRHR
T11 sequence (P51957 whole entry): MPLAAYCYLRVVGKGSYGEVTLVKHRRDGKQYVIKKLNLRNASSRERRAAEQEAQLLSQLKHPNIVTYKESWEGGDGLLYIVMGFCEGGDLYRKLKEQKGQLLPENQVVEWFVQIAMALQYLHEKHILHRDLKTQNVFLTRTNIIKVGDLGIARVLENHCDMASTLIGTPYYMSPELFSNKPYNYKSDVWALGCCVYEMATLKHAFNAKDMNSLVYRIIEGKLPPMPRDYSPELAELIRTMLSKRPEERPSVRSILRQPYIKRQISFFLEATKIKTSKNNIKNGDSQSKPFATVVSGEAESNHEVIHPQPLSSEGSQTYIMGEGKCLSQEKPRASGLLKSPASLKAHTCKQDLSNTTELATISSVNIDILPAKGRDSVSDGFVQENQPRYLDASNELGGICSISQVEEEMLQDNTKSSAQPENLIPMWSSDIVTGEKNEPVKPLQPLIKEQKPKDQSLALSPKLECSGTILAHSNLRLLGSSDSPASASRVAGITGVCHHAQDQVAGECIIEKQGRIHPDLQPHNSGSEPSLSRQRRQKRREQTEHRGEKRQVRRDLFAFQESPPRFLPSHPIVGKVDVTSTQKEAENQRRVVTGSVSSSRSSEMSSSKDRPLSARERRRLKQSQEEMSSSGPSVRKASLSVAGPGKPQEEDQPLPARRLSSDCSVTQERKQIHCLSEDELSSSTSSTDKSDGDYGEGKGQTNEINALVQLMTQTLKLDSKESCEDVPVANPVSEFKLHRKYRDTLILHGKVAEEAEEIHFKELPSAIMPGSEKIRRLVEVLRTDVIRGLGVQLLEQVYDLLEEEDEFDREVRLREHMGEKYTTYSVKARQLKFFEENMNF
T12 sequence (P54756 25-1037): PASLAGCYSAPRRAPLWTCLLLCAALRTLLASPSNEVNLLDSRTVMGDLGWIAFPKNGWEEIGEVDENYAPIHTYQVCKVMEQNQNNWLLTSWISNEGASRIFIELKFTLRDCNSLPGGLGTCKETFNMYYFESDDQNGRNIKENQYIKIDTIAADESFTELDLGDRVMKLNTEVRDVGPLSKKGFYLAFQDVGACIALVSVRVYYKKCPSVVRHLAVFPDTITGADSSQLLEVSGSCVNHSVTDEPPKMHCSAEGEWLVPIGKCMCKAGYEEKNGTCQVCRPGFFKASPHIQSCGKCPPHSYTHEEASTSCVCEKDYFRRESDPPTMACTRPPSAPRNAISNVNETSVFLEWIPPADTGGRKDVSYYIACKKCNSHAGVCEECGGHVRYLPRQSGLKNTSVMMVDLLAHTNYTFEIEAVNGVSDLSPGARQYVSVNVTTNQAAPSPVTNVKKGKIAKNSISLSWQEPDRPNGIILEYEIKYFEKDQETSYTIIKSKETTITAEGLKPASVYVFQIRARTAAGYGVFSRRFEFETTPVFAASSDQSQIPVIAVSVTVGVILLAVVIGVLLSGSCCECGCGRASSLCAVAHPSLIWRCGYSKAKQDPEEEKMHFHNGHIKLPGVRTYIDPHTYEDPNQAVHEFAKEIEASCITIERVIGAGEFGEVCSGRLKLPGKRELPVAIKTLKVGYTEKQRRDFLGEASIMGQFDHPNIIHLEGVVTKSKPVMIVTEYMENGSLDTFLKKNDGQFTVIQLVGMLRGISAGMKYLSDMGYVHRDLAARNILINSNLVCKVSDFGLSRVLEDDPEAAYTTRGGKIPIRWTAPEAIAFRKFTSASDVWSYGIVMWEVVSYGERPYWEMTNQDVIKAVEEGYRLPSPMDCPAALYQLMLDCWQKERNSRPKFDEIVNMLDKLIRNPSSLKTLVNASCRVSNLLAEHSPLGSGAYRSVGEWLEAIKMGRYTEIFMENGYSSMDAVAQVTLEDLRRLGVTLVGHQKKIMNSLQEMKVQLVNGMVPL
T2 sequence (P54764 20-986): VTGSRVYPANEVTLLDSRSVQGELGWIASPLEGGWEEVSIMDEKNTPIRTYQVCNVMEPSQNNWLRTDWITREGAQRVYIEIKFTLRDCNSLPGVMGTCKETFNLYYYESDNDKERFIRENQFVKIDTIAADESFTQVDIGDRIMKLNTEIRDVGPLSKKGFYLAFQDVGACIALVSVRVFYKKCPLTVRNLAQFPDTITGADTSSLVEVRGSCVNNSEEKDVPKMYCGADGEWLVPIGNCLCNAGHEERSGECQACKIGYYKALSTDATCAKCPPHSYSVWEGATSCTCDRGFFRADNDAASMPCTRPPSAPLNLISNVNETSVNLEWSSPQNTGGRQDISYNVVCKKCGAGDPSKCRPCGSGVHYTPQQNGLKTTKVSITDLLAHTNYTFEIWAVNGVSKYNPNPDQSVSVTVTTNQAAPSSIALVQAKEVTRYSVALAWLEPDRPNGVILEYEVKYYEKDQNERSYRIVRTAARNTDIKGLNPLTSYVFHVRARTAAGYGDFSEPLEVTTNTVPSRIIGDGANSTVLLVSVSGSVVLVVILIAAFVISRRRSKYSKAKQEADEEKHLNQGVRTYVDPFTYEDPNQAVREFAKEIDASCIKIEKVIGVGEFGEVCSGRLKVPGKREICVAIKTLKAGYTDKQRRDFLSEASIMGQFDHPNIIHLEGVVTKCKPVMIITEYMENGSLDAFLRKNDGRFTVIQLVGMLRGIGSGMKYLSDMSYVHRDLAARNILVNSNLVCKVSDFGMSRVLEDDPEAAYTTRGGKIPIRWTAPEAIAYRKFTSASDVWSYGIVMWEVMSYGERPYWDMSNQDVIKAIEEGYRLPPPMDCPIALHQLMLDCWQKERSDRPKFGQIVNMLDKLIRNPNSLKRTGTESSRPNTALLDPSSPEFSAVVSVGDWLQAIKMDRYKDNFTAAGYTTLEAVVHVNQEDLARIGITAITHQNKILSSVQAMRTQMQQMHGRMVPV
T1 sequence (Q9P286 whole entry): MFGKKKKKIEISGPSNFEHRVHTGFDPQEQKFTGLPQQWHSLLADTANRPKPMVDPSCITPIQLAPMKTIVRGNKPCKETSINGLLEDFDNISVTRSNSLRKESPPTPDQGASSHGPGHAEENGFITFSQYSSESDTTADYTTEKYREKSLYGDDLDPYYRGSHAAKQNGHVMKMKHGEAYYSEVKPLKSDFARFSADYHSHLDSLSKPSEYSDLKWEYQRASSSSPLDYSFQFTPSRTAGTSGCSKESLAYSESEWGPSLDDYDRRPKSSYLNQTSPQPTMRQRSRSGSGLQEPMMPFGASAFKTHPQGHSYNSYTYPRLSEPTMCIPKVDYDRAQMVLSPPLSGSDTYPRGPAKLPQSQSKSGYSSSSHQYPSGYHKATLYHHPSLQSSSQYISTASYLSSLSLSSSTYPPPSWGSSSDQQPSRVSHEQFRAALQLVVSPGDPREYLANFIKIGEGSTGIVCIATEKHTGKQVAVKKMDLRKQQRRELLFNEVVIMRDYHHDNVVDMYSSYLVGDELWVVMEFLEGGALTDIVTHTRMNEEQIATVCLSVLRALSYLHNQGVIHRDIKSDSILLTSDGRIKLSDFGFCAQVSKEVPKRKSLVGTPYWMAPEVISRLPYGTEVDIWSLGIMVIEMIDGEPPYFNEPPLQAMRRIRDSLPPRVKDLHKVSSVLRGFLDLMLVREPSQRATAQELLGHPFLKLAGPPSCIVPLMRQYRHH
T9 sequence (Q14680 whole entry): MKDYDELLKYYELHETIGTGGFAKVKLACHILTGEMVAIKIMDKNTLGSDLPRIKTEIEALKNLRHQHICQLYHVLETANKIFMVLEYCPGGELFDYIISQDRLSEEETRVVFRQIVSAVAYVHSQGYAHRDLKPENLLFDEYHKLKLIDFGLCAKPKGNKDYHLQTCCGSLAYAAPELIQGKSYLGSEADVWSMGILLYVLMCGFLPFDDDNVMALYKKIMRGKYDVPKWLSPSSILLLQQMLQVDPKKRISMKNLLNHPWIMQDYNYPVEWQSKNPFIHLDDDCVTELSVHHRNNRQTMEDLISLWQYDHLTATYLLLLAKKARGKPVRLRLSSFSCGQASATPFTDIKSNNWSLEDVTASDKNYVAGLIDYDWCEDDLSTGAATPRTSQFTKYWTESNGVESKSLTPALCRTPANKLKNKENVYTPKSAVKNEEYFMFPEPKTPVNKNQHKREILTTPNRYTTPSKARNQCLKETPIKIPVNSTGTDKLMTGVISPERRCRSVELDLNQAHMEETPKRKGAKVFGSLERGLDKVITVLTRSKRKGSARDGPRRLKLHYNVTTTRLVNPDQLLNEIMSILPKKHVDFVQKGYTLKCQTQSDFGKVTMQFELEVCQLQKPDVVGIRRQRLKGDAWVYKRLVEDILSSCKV

SMILES | residual kinase activity (PAK7; 0.3 µM) | residual kinase activity (EPHA4; 0.3 µM) | residual kinase activity (FGFR1; 0.3 µM) | residual kinase activity (IRAK4; 0.3 µM) | residual kinase activity (ACVR2B; 0.3 µM) | residual kinase activity (ACVR1; 0.3 µM) | residual kinase activity (HIPK4; 0.3 µM) | residual kinase activity (ACK1; 0.3 µM) | residual kinase activity (MELK; 0.3 µM) | residual kinase activity (FES; 0.3 µM) | residual kinase activity (NEK4; 0.3 µM) | residual kinase activity (EPHA5; 0.3 µM) | other results
COc1ccnc2[nH]cc(-c3cc(N)nc(N)c3)c12 [meriolin 16] | 81 % of control | 85 % of control | 91 % of control | 50 % of control | 74 % of control | 72 % of control | 24 % of control | 72 % of control | 14 % of control | 87 % of control | 47 % of control | 102 % of control | residual kinase activity (PAK7; 0.03 µM): 89 % of control; residual kinase activity (EPHA4; 0.03 µM): 105 % of control; residual kinase activity (FGFR1; 0.03 µM): 103 % of control; residual kinase activity (IRAK4; 0.03 µM): 83 % of control; residual kinase activity (ACVR2B; 0.03 µM): 81 % of control; residual kinase activity (ACVR1; 0.03 µM): 89 % of control; residual kinase activity (HIPK4; 0.03 µM): 74 % of control; residual kinase activity (ACK1; 0.03 µM): 83 % of control; residual kinase activity (MELK; 0.03 µM): 74 % of control; residual kinase activity (FES; 0.03 µM): 93 % of control; residual kinase activity (NEK4; 0.03 µM): 89 % of control; residual kinase activity (EPHA5; 0.03 µM): 115 % of control
c1ccc(CNc2cc(-c3c[nH]c4ncccc34)ccn2)cc1 [meriolin 36] | 42 % of control | 93 % of control | 56 % of control | 14 % of control | 22 % of control | 24 % of control | 27 % of control | 59 % of control | 36 % of control | 83 % of control | 84 % of control | 146 % of control | residual kinase activity (PAK7; 3 µM): 9 % of control; residual kinase activity (EPHA4; 3 µM): 72 % of control; residual kinase activity (FGFR1; 3 µM): 16 % of control; residual kinase activity (IRAK4; 3 µM): 2 % of control; residual kinase activity (ACVR2B; 3 µM): 5 % of control; residual kinase activity (ACVR1; 3 µM): 1 % of control; residual kinase activity (HIPK4; 3 µM): 2 % of control; residual kinase activity (ACK1; 3 µM): 15 % of control; residual kinase activity (MELK; 3 µM): 9 % of control; residual kinase activity (FES; 3 µM): 50 % of control; residual kinase activity (NEK4; 3 µM): 37 % of control; residual kinase activity (EPHA5; 3 µM): 84 % of control
